Entries after “also recorded” stand apart in the source; their conditions may differ. A value given as a limit tells only on which side of the number the result lay.

Series [1] relates to adults of house flies. To be noted: cited from earlier work.
For series [2], the system named is Female house mosquitoes. In words: Petri dish insecticidal efficacy test (KT100 and mortality after 24 hours). Type of series: in vivo. The source says:
The fractionated component E2-4-2 which is a mixture of compound A and compound B was subjected to the insecticidal efficacy test based on the test conditions shown in Table 3, wherein the concentration of the fractionated component E2-4-2, natural pyrethrin, and dl-d-T80-allethrin was further diluted for the test.

Series [3] has as its system adults of Blattella germanica. To be noted: on the basis of the LD50 value by a microdropping method; cited from earlier work.

In the case of `C=CCC1=C(C)C(OC(=O)C2C(C=C(C)C)C2(C)C)CC1=O` (racemic) [dl-d-T80-allethrin], the “dose required for killing the adults of house flies relative to the dose required for killing the adults of house mosquitoes” value in series [1] (on the basis of the LD50 value by a microdropping method) is “about 17 times”. The “dose required for killing the adult house flies relative to the dose required for killing northern house mosquitoes” value in series [1] (rounded statement) is “about 20 times”. The KT100 value in series [2] (Table 4, 0.001 mg/6.15 cm^2) was 50 min; in series [2] (Table 4, 0.01 mg/6.15 cm^2), below 5 min; in series [2] (Table 4, 0.1 mg/6.15 cm^2, time to 100% knockdown) it was below 5 min; in series [2] (Table 5, 10^−1 mg/6.15 cm^2) it was below 5 min; in series [2] (Table 5, 10^−2 mg/6.15 cm^2) it was below 5 min; in series [2] (Table 5, 10^−3 mg/6.15 cm^2), 50 min. Further, the KT100 value in series [2] (Table 5, 10^−4 mg/6.15 cm^2) was above 120 min; in series [2] (Table 7, 10^−5 mg/6.15 cm^2), “cannot achieved; also recorded: Survive”. The “The mortality after 24 hours” value in series [2] (Table 4, 0.001 mg/6.15 cm^2) amounted to 83%; in series [2] (Table 4, 0.01 mg/6.15 cm^2), 100%; in series [2] (Table 4, 0.1 mg/6.15 cm^2) it was 100%; in series [2] (Table 5, 10^−1 mg/6.15 cm^2), 100%; in series [2] (Table 5, 10^−2 mg/6.15 cm^2), 100%; in series [2] (Table 5, 10^−3 mg/6.15 cm^2) it was 83%. The “The mortality after 24 hours” value in series [2] (Table 5, 10^−4 mg/6.15 cm^2) amounted to 17%; in series [2] (Table 7, 10^−5 mg/6.15 cm^2), 0%. The “dose required for killing the adults of Blattella germanica relative to the dose required for killing the adults of house mosquitoes” value in series [3] is listed as “about 103 times”.

Values taken from patent publication US8377993B2, “Insecticidal compound” (Dainihon Jochugiku Co., Ltd., priority 2010, dated 2013).
